The target of assay [1] is T1, Tyrosine-protein phosphatase non-receptor type 7 (Homo sapiens, UniProt P35236).
T1 sequence (P35236 whole entry): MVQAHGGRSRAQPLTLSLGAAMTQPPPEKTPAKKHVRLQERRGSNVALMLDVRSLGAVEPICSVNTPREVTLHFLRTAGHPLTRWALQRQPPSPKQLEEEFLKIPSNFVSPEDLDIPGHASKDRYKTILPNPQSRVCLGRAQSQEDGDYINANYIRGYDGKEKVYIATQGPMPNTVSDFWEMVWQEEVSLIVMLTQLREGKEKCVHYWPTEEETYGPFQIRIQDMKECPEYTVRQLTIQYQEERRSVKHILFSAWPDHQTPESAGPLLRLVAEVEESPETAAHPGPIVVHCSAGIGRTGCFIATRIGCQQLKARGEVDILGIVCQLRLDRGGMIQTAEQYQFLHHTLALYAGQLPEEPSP
The assay is described as follows: SAR analysis of chemical inhibitors of HePTP using a Fluorescent assay - Set 2. [Related pubchem assays (depositor defined):AID1059, AID1077, AID1661, AID2085, AID521]. The assay is classed as functional.

The target in assay [2] is Genome polyprotein (dengue virus type 2, UniProt P29990). The assay is described as follows: flavivirus cap methylation enzyme inhibition – biochemical, confirmation dose response, primary screen (AID 588689). The assay is classed as functional.
Assay [3] can be described thus: cells. The assay is classed as functional, cell-based.
Assay [4] addresses Cytochrome P450 2D6 (Homo sapiens, UniProt P10635).
Assay [5] concerns INS1. Nature of the assay: INS-1E survival protection against cytokine death – cell-based, luminescence, retest, dose response (AID 449756).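 Further: cell death triggered by IL-1 beta plus TNF-alpha plus IFN-gamma mixture; protective hits raise ATP signal compared with cytokine alone wells.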 In kind it is functional. The conditions noted are these: Rattus norvegicus.
A short description of assay [6]: Trypanosoma cruzi growth suppression in host cells – NIH3T3 host cells, beta-gal luminescence, confirmation (AID 2044).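 Further: intracellular parasites grown in NIH/3T3 mouse fibroblasts as host cells; luminescent beta-galactosidase reporter signal from transgenic T. cruzi replicating inside host cells; inhibitors lower the luminescence signal.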 The assay is classed as functional, cell-based.
For assay [7], the target named is T2, Apoptotic protease-activating factor 1 (Homo sapiens, UniProt O14727).
T2 sequence (O14727 whole entry): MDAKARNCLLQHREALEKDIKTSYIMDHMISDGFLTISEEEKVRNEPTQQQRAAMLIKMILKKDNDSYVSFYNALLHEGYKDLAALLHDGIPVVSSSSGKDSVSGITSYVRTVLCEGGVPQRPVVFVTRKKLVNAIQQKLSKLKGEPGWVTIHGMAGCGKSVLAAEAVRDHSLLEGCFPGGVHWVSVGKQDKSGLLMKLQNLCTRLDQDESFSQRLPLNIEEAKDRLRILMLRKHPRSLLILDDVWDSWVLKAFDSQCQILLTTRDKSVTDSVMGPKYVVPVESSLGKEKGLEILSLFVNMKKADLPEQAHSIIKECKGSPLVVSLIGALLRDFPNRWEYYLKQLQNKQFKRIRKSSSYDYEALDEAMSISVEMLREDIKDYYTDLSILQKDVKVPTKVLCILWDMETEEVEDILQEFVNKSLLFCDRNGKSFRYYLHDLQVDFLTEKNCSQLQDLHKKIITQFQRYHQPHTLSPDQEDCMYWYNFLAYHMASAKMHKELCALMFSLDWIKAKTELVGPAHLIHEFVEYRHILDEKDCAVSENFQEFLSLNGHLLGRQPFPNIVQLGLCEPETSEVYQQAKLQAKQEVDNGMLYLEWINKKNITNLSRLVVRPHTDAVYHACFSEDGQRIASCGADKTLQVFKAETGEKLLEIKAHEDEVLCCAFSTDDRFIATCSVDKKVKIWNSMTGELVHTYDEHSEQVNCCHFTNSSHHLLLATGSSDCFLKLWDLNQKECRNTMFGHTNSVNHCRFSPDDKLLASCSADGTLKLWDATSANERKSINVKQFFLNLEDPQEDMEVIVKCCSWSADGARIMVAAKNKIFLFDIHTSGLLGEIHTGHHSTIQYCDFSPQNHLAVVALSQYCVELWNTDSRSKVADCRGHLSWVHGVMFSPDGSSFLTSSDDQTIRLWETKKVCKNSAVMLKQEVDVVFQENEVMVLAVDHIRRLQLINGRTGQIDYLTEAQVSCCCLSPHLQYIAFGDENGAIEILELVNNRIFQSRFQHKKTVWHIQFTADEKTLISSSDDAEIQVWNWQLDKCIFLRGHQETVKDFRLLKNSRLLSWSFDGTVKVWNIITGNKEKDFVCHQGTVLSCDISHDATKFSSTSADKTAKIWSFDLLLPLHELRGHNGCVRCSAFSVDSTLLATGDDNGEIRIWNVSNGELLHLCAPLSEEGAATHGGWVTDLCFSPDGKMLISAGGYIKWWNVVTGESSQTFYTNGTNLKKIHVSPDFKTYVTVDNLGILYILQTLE
In kind it is functional.

The target in assay [8] is T3, Hexokinase HKDC1 (Homo sapiens, UniProt Q2TB90).
T3 sequence (Q2TB90 whole entry): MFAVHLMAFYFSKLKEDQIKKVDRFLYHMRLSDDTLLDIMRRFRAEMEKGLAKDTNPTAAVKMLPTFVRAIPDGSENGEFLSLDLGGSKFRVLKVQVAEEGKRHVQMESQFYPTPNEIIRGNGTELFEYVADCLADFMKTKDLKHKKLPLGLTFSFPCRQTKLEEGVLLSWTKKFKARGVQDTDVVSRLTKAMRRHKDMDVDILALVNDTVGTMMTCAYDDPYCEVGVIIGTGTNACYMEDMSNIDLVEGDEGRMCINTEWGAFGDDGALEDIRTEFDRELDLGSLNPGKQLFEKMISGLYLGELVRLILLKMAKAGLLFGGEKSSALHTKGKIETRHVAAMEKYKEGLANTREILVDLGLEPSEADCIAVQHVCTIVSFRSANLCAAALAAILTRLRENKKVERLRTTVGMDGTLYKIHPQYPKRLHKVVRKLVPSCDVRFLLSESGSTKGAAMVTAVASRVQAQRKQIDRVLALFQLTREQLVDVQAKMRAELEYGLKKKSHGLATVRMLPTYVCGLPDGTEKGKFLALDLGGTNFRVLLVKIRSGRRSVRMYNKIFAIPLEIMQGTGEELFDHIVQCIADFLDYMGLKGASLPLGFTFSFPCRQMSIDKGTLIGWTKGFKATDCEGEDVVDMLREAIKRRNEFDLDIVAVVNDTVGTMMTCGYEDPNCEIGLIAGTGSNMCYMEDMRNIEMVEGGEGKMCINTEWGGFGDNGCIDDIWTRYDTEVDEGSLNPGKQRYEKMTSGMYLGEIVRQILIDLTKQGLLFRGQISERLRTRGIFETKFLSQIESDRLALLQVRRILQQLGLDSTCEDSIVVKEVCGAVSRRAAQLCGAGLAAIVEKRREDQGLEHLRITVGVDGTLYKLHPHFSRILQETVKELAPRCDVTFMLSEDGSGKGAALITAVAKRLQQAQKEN
Nature of the assay: inhibition of HKDC1 glucose phosphorylation – biochemical, W721R variant, dose response (AID 504729). In kind it is functional.

Calls of active or inactive are those of the source.

Sequence of Genome polyprotein (P29990 2492-3391 limits assumed): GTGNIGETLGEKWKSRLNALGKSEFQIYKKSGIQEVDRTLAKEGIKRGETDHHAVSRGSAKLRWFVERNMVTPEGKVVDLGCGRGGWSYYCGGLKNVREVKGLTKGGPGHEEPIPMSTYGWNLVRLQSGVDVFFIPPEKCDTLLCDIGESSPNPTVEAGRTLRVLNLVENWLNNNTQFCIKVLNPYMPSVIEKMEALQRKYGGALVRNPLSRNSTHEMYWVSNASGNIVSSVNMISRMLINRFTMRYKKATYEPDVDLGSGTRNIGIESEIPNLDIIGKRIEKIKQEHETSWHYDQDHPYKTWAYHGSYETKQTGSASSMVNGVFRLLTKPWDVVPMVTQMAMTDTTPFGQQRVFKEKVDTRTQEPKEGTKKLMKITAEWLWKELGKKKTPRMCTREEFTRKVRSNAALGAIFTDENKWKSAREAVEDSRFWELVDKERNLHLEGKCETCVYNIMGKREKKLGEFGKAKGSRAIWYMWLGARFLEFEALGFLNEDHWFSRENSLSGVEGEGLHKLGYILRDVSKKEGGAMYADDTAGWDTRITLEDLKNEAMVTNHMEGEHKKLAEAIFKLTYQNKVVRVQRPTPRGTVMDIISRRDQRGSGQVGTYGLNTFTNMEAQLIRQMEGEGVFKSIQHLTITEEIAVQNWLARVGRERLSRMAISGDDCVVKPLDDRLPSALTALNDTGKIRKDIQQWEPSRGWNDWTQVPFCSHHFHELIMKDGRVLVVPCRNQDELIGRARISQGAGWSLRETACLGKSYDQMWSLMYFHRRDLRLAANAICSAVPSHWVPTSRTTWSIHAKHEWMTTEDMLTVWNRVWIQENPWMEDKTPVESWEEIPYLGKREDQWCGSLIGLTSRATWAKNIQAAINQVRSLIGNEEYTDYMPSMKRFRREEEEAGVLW
Sequence of Cytochrome P450 2D6 (P10635 whole entry): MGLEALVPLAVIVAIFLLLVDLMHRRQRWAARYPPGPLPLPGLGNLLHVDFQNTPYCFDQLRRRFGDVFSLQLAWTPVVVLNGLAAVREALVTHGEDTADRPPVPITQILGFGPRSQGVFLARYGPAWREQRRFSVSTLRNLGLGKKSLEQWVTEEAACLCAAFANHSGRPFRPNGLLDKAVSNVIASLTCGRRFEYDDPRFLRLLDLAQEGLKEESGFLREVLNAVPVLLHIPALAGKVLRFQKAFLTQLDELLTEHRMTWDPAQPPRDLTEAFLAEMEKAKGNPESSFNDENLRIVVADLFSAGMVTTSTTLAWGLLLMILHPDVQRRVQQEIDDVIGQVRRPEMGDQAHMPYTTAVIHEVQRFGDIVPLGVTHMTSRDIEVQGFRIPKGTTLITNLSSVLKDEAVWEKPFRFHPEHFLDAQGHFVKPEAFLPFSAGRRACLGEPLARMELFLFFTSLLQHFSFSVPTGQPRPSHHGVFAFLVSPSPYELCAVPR

Take `CCc1nnc(NS(=O)(=O)c2ccc(NC(=S)NC(=O)/C=C/c3ccc(C(C)C)cc3)cc2)s1`: the values for the IC50 in assay [1] and in assay [2] were 5.99 µM (active) and 50 µM (active), respectively.

Turning to `O=C(/C=C/c1ccco1)Nc1ccc(Oc2ccccc2)cc1`, the EC50 in assay [3] was 6.08 µM (active). Further, the AC50 in assay [4] is 4.47 µM (inconclusive).

Turning to `CC1CC(=O)c2c(cc3c(-c4c(O)cc(O)c5c(O)c6c(cc45)OC(C)CC6=O)c(O)cc(O)c3c2O)O1` (stereo not drawn) [CEPHALOCHROMIN], the AC50 in assay [5] is 3.39 µM (active). Also, the EC50 in assay [6] was 373 nM (active).

In the case of `COC(=O)C(O)(c1c(C)[nH]n(-c2ccccc2)c1=O)C(F)(F)F` (stereo not drawn), the IC50 in assay [7] was 14.6 µM (active).

With `COc1ccc(S(=O)(=O)Nc2cc(SCC(=O)O)c(O)c3ccccc23)cc1`, the IC50 in assay [7] was 31.8 µM (active); in assay [2], 7.22 µM (active); in assay [8], 12 µM (active). Besides, the AC50 in assay [5] was 4.09 µM (active).

In the case of `O=C1C(Nc2ccc(O)cc2)=C/C(=N/S(=O)(=O)c2cccs2)c2ccccc21`, the EC50 in assay [6] was 550 nM (active). The IC50 in assay [8] was 8.31 µM (active).

In general, IC50 refers to the concentration that inhibits the measured activity by half. Broadly, the EC50 is the concentration giving half of the maximal effect. By AC50 is commonly meant the midpoint of the concentration-response curve, whichever way the signal moves.

(Values after ChEMBL document CHEMBL1201862, “PubChem BioAssay data set” (2004).)
